From publication PMC8445934, “Transformation of tenofovir into stable ProTide nanocrystals with long-acting pharmacokinetic profiles” (Nature Communications, 2021)
pEC50: −log10 of the molar value. Converted amounts (≈) assume the structure as drawn. “And” between values parts separate entries of the source, which are not always exact repeats. Equal entries are not always repeated. Where two headings read alike, the source gives them in different places.

Key:
[1] = test system: human monocyte-derived macrophages (MDM); experiment: MTT cell viability / mitochondrial activity assay in MDM; details: for Cell viability by MTT, normalized to untreated control cells: replicates
Procedure: Human monocytes were obtained, cultured, and differentiated into MDM as previously described[11],[12],[34],[62]. The cell viability after treatment with nanoparticles was evaluated using the MTT assay. […] The cells were then washed with PBS after which 100 μL of MTT solution was added to each well (5 mg/mL) for 45 min at 37 °C. The MTT solution was then replaced with 200 μL/well of DMSO. A Molecular Devices SpectraMax M3 plate reader with SoftMax Pro 6.2 software (Sunnyvale, CA) was used to record absorbance at a wavelength of 490 nm.

HIV-1ADA [2] = experiment: Antiretroviral EC50/IC50 in MDM by HIV-1 RT activity after HIV-1ADA challenge; format: cell-based; details: for RT activity (cpm/ mL): replicate wells
Procedure: (§1) To determine long-term antiretroviral efficacy following a single treatment, MDMs were plated in flat-bottom 12-well plates at a density of 1.2 × 10^6 cells/well. […] After treatment, the cells were washed twice with PBS and cultured in a fresh culture medium without drug with half-media replacement every other day. On days 1, 5, 10, 15, 20, 25, and 30 following treatment, the cells were infected with HIV-1ADA (a macrophage-tropic viral strain) at a multiplicity of infection of 0.1 infectious particles/cell for 8 h. MDM were cultured, and media samples collected on day 10 for the measurement of HIV reverse transcriptase (RT) activity as previously described[64],[65]. Cells were fixed in 2% PFA at each time point, and expression of the HIV-1p24 antigen was determined by immunocytochemistry. […] After 4 h of viral challenge, the cells were washed with PBS and given fresh media that contained the same concentrations of drug (0.00005–5,000 nM). Cell supernatants were collected 10 days later and assayed for HIV-1 RT activity as described above. Replicate studies were performed in CEM-ss CD4+ T-cell cultures. Specifically, cells were plated in 96-well plates, centrifuged at 650 × g for 5 min, and resuspended in (0.1–1,000 nM) drug-containing media for 1 h. The subsequent challenge with HIV-1NL4–3-eGFP, cell culture, sample collection, and determination of HIV-1 RT activity were performed as previously reported[13],[15].

[3] = Prodrug chemical stability of dissociated nanoformulations in pH 2.0-10.3 buffers; format: physicochemical; details: buffers pH 2.0-10.3, 24 h
Procedure: The mixtures were centrifuged at 16,000 × g for 10 min. The supernatants were aspirated and stored at −80 °C until ultraperformance liquid chromatography tandem mass spectrometry (UPLC-MS/MS) analysis.

HIV-1ADA [4] = experiment: Long-term antiretroviral efficacy in MDM after single 8 h treatment (HIV-1 RT activity, p24); format: cell-based; details: for HIV-1 RT activity: MDM, 10 µM (Figure 4D)
Procedure: as §1

[5] = Aqueous and 1-octanol solubility (excess drug, shaking 48 h, UPLC-UV); format: physicochemical; details: for solubility at 48 h: water, thermodynamic from solid
Procedure: Samples were centrifuged at 20,000 × g for 10 min to separate the solubilized drug from insoluble pellet. Aqueous supernatants were frozen, lyophilized, and then resuspended in MeOH. 1-octanol supernatants were prepared for analysis by dilution in MeOH and samples analyzed for drug content by UPLC-UV (Waters Acquity H Class).

CEM-ss T-cells = details: replicates
Procedure: (§2) Supplementary Fi gur e 9. ProTide Biological Characterizations. […]
one- way analysis of variance (ANOVA) followed by Tukey’s post hoc test was used to compare the prodrug and TFV-DP levels among three treatment groups (*P ≤ 0.05, **P < 0.01, […]
(0.0001– 1000 nM) and determined by HIV-1 reverse transcriptase (RT) activity after viral challenge with HIV -1ADA at an MOI of 0.1. Data was normalized and expressed as percentage of HIV-1 control ± SEM; N = 4.
(§3) (1 picture or pasted object on this page, not shown here)

HIV-1NL4–3-eGFP = experiment: microbe, parasite or virus in culture; format: cell-based; details: for % GFP Positive: replicates
From the text: as §2, §3

CC(C)OC(=O)[C@H](C)N[P@](=O)(CO[C@H](C)Cn1cnc2c(N)ncnc21)Oc1ccccc1 [TAF, tenofovir alafenamide]
toxicity to cells ([1]; 100 μM): highly toxic to cells
concentration above which a decrease in cell viability was observed ([1]; 8 h): above 12.5 μM
Cell viability by MTT, normalized to untreated control cells ([1]; 8 h, 1.5625 uM): 0.7334 and 0.7343 and 0.7491
Cell viability by MTT, normalized to untreated control cells ([1]; 8 h, 3.125 uM): 0.6802 and 0.6819 and 0.7483
Cell viability by MTT, normalized to untreated control cells ([1]; 8 h, 6.25 uM): 0.6627 and 0.6548 and 0.6836 and 0.7177
Cell viability by MTT, normalized to untreated control cells ([1]; 8 h, 25 uM): 0.6304 and 0.5666 and 0.5754 and 0.5928
Cell viability by MTT, normalized to untreated control cells ([1]; 8 h, 50 uM): 0.4531 and 0.3981 and 0.3597 and 0.4348
Cell viability by MTT, normalized to untreated control cells ([1]; 8 h, 100 uM): 0.3842 and 0.3676 and 0.4051 and 0.4296
Cell viability by MTT, normalized to untreated control cells ([1]; 8 h, 200 uM): 0.3562 and 0.31 and 0.303 and 0.3222
pEC50 (HIV-1ADA [2]; Human immunodeficiency virus 1, 240 h): 9.66
RT activity (cpm/ mL) (HIV-1ADA [2]; drug concentration 5e-6 nM): 29.681 cpm/ mL and 30.024 cpm/ mL and 28.68 cpm/ mL
RT activity (cpm/ mL) (HIV-1ADA [2]; drug concentration 5e-5 nM): 35.114 cpm/ mL and 41.925 cpm/ mL and 38.687 cpm/ mL
RT activity (cpm/ mL) (HIV-1ADA [2]; drug concentration 0.0005 nM): 33.176 cpm/ mL and 39.763 cpm/ mL and 30.439 cpm/ mL
RT activity (cpm/ mL) (HIV-1ADA [2]; drug concentration 0.005 nM): 15.954 cpm/ mL and 19.78 cpm/ mL and 30.439 cpm/ mL
RT activity (cpm/ mL) (HIV-1ADA [2]; drug concentration 0.05 nM): 13.503 cpm/ mL and 38.469 cpm/ mL
RT activity (cpm/ mL) (HIV-1ADA [2]; drug concentration 0.5 nM): 16.77 cpm/ mL and 16.849 cpm/ mL and 12.873 cpm/ mL
RT activity (cpm/ mL) (HIV-1ADA [2]; drug concentration 5 nM): 0.361 cpm/ mL and 0.448 cpm/ mL and 0.415 cpm/ mL
RT activity (cpm/ mL) (HIV-1ADA [2]; drug concentration 50 nM): 0.452 cpm/ mL and 0.242 cpm/ mL
RT activity (cpm/ mL) (HIV-1ADA [2]; drug concentration 500 nM): 0.23 cpm/ mL and 0.324 cpm/ mL and 0.407 cpm/ mL
RT activity (cpm/ mL) (HIV-1ADA [2]; drug concentration 5000 nM): 0.233 cpm/ mL and 0.252 cpm/ mL and 0.245 cpm/ mL
hydrolytic stability across pH [3]: hydrolytically unstable at basic pH
viral breakthrough (HIV-1ADA [4]; 10 μM, day 30): complete viral breakthrough
inhibition at 10 µM (HIV-1ADA [4]; Human immunodeficiency virus 1, 240 h, read-out: viral inhibition): 84.5%
HIV-1 RT activity (HIV-1ADA [4]; challenge day 1, replicates): 1.694 % of postive control and 1.963 % of postive control and 1.344 % of postive control and 1.665 % of postive control and 1.247 % of postive control and 0.8808 % of postive control
HIV-1 RT activity (HIV-1ADA [4]; challenge day 5, replicates): 1.516 % of postive control and 1.942 % of postive control and 1.963 % of postive control and 1.828 % of postive control and 2.306 % of postive control and 0.4466 % of postive control
HIV-1 RT activity (HIV-1ADA [4]; challenge day 10, replicates): 13.8971 % of postive control and 15.2412 % of postive control and 16.845 % of postive control and 11.6649 % of postive control and 19.6336 % of postive control and 17.0654 % of postive control
HIV-1 RT activity (HIV-1ADA [4]; challenge day 15, replicates): 10.4755 % of postive control and 3.747 % of postive control and 7.537 % of postive control and 13.2434 % of postive control and 32.8105 % of postive control
HIV-1 RT activity (HIV-1ADA [4]; challenge day 30, replicates): 86.3496 % of postive control and 48.9086 % of postive control and 79.0354 % of postive control and 54.8629 % of postive control
water solubility, individual replicates ([5]; Figure 1C source data): 4.882
solubility at 48 h ([5]; Figure 1C source data, read-out: water solubility, individual replicates): 6160 µg/mL (≈ 12.9 mM)
solubility at 48 h ([5]; room temperature, 48 h, read-out: aqueous solubilities): 5520 µg/mL (≈ 11.6 mM)
Prodrug measurements, CEM-ss cells (CEM-ss T-cells; 2 hours): 0.09778 and 0.1063 and 0.08772
Prodrug measurements, CEM-ss cells (CEM-ss T-cells; 4 hours): 0.113 and 0.1292 and 0.1331
Prodrug measurements, CEM-ss cells (CEM-ss T-cells; 8 hours): 0.2769 and 0.2544 and 0.2424
pEC50 (HIV-1NL4–3-eGFP; Human immunodeficiency virus 1, CEM-SS): 9.48
% GFP Positive (HIV-1NL4–3-eGFP; Log Drug Concentration (uM) 0): 0.094% and 0.243% and 0.132%
% GFP Positive (HIV-1NL4–3-eGFP; Log Drug Concentration (uM) -1): 0.087% and 0.114% and 0.038%
% GFP Positive (HIV-1NL4–3-eGFP; Log Drug Concentration (uM) -2): 0.071% and 0.098% (2×)
% GFP Positive (HIV-1NL4–3-eGFP; Log Drug Concentration (uM) -3): 0.109% and 0.099% and 0.2%
% GFP Positive (HIV-1NL4–3-eGFP; Log Drug Concentration (uM) -4): 39.441% and 35.802% and 35.047%
% GFP Positive (HIV-1NL4–3-eGFP; Log Drug Concentration (uM) -5): 32.55% and 34.185% and 34.763%
% GFP Positive (HIV-1NL4–3-eGFP; Log Drug Concentration (uM) -6): 38.186% and 33.243% and 31.663%
% GFP Positive (HIV-1NL4–3-eGFP; Log Drug Concentration (uM) -9): 36.164% and 40.34% and 38.638%
% GFP Positive (HIV-1NL4–3-eGFP; Log Drug Concentration (uM) -12): 43.7% and 40.475% and 37.429%
